Results on seven compounds are retold here after US4104390A, “Thieno [2,3-c] and [3,2-c] pyridines” (Parcor, priority 1976, dated 1978).

One may read the inhibition as the relative decrease from the control value, in per cent.

Read-outs that look alike come from different tables or passages of the source.

In assay [1] the test system is A.D.P.-induced blood-platelet aggregation. Put plainly: A.D.P.-induced blood-platelet aggregation. The class given is in vivo, Wistar rats. The following applies: rats, 100 mg/kg orally, 3 hours after treatment, 10 μM A.D.P. solution, with respect to control group; for inhibition at 100 mg/kg: Rattus norvegicus, po, read-out: Percent inhibition of blood-platelet aggregation, A.D.P. The method, then:
(§1) Blood is taken from the jugular vein of Wistar rats. From this citrated blood, and after centrifugation, is reconstituted a plasma containing 600,000 ± 20,000 blood-platelets per ml which is used in all aggregation determinations.
(§2) 0.4 ml plasma is placed in a siliconized tube provided with a magnet bar, also siliconized. The tube is introduced into an aggregometer coupled with an apparatus for recording optical density variations. When light transmission has reached a stable value, 0.5 ml of a solution containing 10 μM A.D.P. (Adenosine-Di-Phosphate) is introduced into the tube.
(§3) Blood-platelet aggregation causes an increase of light transmission followed by a decrease subsequent to the deaggregation phase.
(§4) The maximal optical density variation thus determined characterizes the intensity of the aggregation.
(§5) Different groups of 20 rats are used, each group being orally administered a test derivative at a dosage of 100 mg/kg.

For assay [2], the system named is collagen-induced blood-platelet aggregation. Description: Collagen-induced blood-platelet aggregation. In kind it is in vivo, Wistar rats. The following applies: rats, 100 mg/kg orally, 3 hours after treatment, collagen (bovine tendon extract), with respect to control group; for inhibition at 100 mg/kg: Rattus norvegicus, po, read-out: Percent inhibition of blood-platelet aggregation, Collagen. How it is done: as §1, §2, §3, §4
The A.D.P. solution is substituted with a collagen solution (bovine tendon extract).
as §5

Assay [3] deals with carrageenin-induced localized edema. Description: Carrageenin-induced localized edema method. In kind it is in vivo. The following applies: rats, 100 mg/kg orally at -1, 0, 1 and 2.5 hours; for inhibition in vivo at 100 mg/kg: Rattus norvegicus, po. How it is done:
(a) Carrageenin-induced localized edema method
0.1 ml of a 1% carrageenin solution is injected in the metatarsal flexor muscles of the right hind limb of rats at time 0. The animals of the treated group are additionally orally administered 100 mg/kg of the test derivative, respectively one hour prior to injection of the phlogogenic agent, simultaneously with said injection, and then 1 hour and 2.5 hours thereafter. The determinations effected by means of a ROCH micrometer at times 0, 1 hour, 2 hours, 3 hours and 5 hours after carrageenin administration make it possible to determine, as a function of time, the percent anti-inflammatory activity with respect to the reference group.

Assay [4] concerns ovalbumen-induced systemic edema. Put plainly: Ovalbumen-induced systemic edema method. The class given is in vivo. The following applies: rats, 100 mg/kg orally 1 hour before and with ovalbumen; for inhibition in vivo at 100 mg/kg: Rattus norvegicus, po. The method, then:
(b) Ovalbumen-induced systemic edema method
Simultaneous injection of 1 ml ovalbumen and 0.5 ml of a 1% aqueous Evans Blue solution is effected in rats. On the other hand, the animals of the treated group are administered orally 100 mg/kg of the test derivative one hour prior to ovalbumen administration and simultaneously with said administration. The intensity of the phenomenon thus induced is scored according to a scale from 1 to 5 depending on the progress of the inflammatory syndrome. The mean intensity of the edem and the percent decrease of the edema reaction with respect to the control group are thus determined as a function of time.

[5] abbreviates: 1 hour after carrageenin, read-out: Percent anti-inflammatory activity after 1 hour.
Setting [6] is: 2 hours after carrageenin, read-out: Percent anti-inflammatory activity after 2 hours.
The mark [7] stands for this setting: 3 hours after carrageenin, read-out: Percent anti-inflammatory activity after 3 hours.
The mark [8] stands for this setting: 5 hours after carrageenin, read-out: Percent anti-inflammatory activity after 5 hours.
The mark [9] stands for this setting: 2 hours after ovalbumen, read-out: Percent anti-inflammatory activity after 2 hours.
The mark [10] stands for this setting: 3 hours after ovalbumen, read-out: Percent anti-inflammatory activity after 3 hours.

Regarding `COc1ccc(CN2Cc3ccsc3C(c3ccccc3)C2)cc1` (centres unmarked) [derivative n°27, 5-p.Methoxybenzyl-7-phenyl-4,5,6,7-tetrahydro-thieno[3,2-c]pyridine], the inhibition at 100 mg/kg in assay [1] amounted to 63%; in assay [2], 92.4%. The inhibition in vivo at 100 mg/kg in assay [3] (setting [5]) turned out to be 38%; in assay [3] (setting [6]) it was 45%; in assay [3] (setting [7]), 49%; in assay [3] (setting [8]), 52%; in assay [4] (setting [9]), 51%; in assay [4] (setting [10]) it was 56%.
As for `c1ccc(CN2Cc3ccsc3C(c3ccccc3)C2)cc1` (centres unmarked) [derivative n°24, 5-Benzyl-7-phenyl-4,5,6,7-tetrahydro-thieno[3,2-c]pyridine], the inhibition at 100 mg/kg turned out to be 62.6% in assay [1] and 93% in assay [2]. In addition, the inhibition in vivo at 100 mg/kg in assay [3] (setting [5]) was determined as 41%; in assay [3] (setting [6]), 47%; in assay [3] (setting [7]), 50%; in assay [3] (setting [8]), 53%; in assay [4] (setting [9]) it was 42%; in assay [4] (setting [10]), 47%.
With `O=[N+]([O-])c1ccc(CN2Cc3sccc3C(c3ccccc3)C2)cc1` (centres unmarked) [derivative n°17, 6-p.Nitrobenzyl-4-phenyl-4,5,6,7-tetrahydro-thieno[2,3-c]pyridine], the inhibition at 100 mg/kg was determined as 63.9% in assay [1] and 95% in assay [2]. The inhibition in vivo at 100 mg/kg in assay [3] (setting [5]) was 42%; in assay [3] (setting [6]), 50%; in assay [3] (setting [7]) it was 54%; in assay [3] (setting [8]), 58%; in assay [4] (setting [9]) it was 43%; in assay [4] (setting [10]), 51%.
For the compound `COc1ccc(C2CN(Cc3ccccc3Cl)Cc3sccc32)cc1` (centres unmarked) [derivative n°7, 6-o-Chlorobenzyl-4-p-methoxyphenyl-4,5,6,7-tetrahydro-thieno[2,3-c]pyridine], the values for the inhibition at 100 mg/kg in assay [1] and in assay [2] were 61.5% and 90.7%, respectively. For the same compound, the inhibition in vivo at 100 mg/kg in assay [3] (setting [5]) stood at 44%; in assay [3] (setting [6]), 50%; in assay [3] (setting [7]), 54%; in assay [3] (setting [8]) it was 59%; in assay [4] (setting [9]) it was 52%; in assay [4] (setting [10]), 59%.
Turning to `Clc1ccc(C2CN(Cc3ccccc3Cl)Cc3sccc32)cc1` (centres unmarked) [derivative n°9, 6-o.Chlorobenzyl-4-p.chlorophenyl-4,5,6,7-tetrahydro-thieno[2,3-c]pyridine], the inhibition at 100 mg/kg in assay [1] turned out to be 64.3%; in assay [2] it was 93.8%. The inhibition in vivo at 100 mg/kg in assay [3] (setting [5]) was 44%; in assay [3] (setting [6]) it was 52%; in assay [3] (setting [7]), 55%; in assay [3] (setting [8]) it was 57%; in assay [4] (setting [9]), 48%; in assay [4] (setting [10]) it was 56%.
As to `Cc1ccc(N2Cc3sccc3C(c3ccccc3)C2)cc1` (centres unmarked) [derivative n°18, 4-Phenyl-6-p.tolyl-4,5,6,7-tetrahydro-thieno[2,3-c]pyridine], the “Percent inhibition of blood-platelet aggregation, A.D.P.” value in assay [1] worked out at 62.5%. Further, the “Percent inhibition of blood-platelet aggregation, Collagen” value in assay [2] is on record as 93.5%. Also, in assay [3] (1 hour after carrageenin), the “Percent anti-inflammatory activity after 1 hour” value is recorded as 40%. In addition, the results for the “Percent anti-inflammatory activity after 2 hours” value in assay [3] (2 hours after carrageenin) and in assay [4] (2 hours after ovalbumen) were 48% and 47%, respectively. The results for the “Percent anti-inflammatory activity after 3 hours” value in assay [3] (3 hours after carrageenin) and in assay [4] (3 hours after ovalbumen) were 53% and 56%, respectively. Also, the “Percent anti-inflammatory activity after 5 hours” value in assay [3] (5 hours after carrageenin) is 56%.
As to `Cc1ccc(C2CN(Cc3ccccc3Cl)Cc3sccc32)cc1` (centres unmarked) [derivative n°10, 6-o.Chlorobenzyl-4-p.tolyl-4,5,6,7-tetrahydrothieno[2,3-c]pyridine], the inhibition at 100 mg/kg in assay [1] came out at 65%; in assay [2] it was 96%. Besides, the inhibition in vivo at 100 mg/kg in assay [3] (setting [5]) is 38%; in assay [3] (setting [6]), 45%; in assay [3] (setting [7]), 48%; in assay [3] (setting [8]), 52%; in assay [4] (setting [9]), 53%; in assay [4] (setting [10]), 60%.
